Source: patent US10124004B2, “Pyrido[3,4-d]pyrimidine derivative and pharmaceutically acceptable salt thereof” (Teijin Pharma Limited, priority 2015, dated 2018)
pIC50: −log10 of the molar value. Like-named read-outs stand apart in the source and are kept apart here.

Experiments:
CDK4/cyclin D3 = target: T1, CDK4/cyclin D3 (Homo sapiens, UniProt P11802); assay: Human CDK4/cyclin D3 inhibitory activity (QS S Assist CDK4/Cyclin D3_FP Kit, IMAP fluorescence polarization); type: biochemical
T1 construct: purchased Carna Biosciences, Inc. QS S Assist CDK4/Cyclin D3_FP Kit
T1 sequence (P11802 whole entry): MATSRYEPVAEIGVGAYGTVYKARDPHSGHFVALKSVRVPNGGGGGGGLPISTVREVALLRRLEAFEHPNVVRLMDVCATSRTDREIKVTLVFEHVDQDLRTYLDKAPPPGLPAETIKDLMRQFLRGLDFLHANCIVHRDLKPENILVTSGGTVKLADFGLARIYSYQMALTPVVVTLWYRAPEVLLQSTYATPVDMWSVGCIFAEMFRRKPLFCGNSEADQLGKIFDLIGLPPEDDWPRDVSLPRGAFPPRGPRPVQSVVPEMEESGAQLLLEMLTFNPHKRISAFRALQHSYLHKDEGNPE
T1 sequence (P30281 whole entry partner): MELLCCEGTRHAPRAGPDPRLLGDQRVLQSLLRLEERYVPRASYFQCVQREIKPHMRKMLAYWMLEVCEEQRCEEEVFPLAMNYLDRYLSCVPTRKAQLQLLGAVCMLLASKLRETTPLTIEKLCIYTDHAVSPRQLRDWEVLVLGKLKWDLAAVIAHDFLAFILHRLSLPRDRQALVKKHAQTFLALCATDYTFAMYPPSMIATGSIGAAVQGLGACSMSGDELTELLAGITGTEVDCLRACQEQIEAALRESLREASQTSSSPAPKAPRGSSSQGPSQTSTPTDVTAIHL
Outline: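 IMAP fluorescence polarization kit: CDK4/cyclin D3 at 12.5-25 ng/well with kit ATP/substrate/metal mix in 20 mM HEPES pH 7.4, 0.01% Tween20, 2 mM DTT, 45 min at room temperature. FP read at 485/535 nm after 30 min binding; IC50 from dose-response fit of percent inhibition versus enzyme and no-enzyme controls.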

CDK2/cyclin A2 = target: T2, CDK2/cyclin A2 (Homo sapiens, UniProt P24941); assay: Human CDK2/cyclin A2 inhibitory activity (QS S Assist CDK2/Cyclin A2_FP Kit, IMAP fluorescence polarization); type: biochemical
T2 construct: purchased Carna Biosciences, Inc. QS S Assist CDK2/Cyclin A2_FP Kit
Description: Human CDK2/Cyclin A^2 Inhibitory Activity
Each compound was analyzed for CDK2/cyclin A2 inhibitory activity with an assay kit (QS S Assist CDK2/Cyclin A2_FP Kit, available from Carna Biosciences, Inc.). This assay kit determines kinase activity on the basis of the IMAP technology by Molecular Devices. Specifically, the kinase activity is determined through quantification of a variation in fluorescent polarization caused by binding of a kinase-phosphorylated fluorescent substance to an IMAP-binding reagent.
An assay buffer was prepared by 10-fold dilution of the 10× assay buffer attached to the kit with distilled water, and each solution was prepared with the assay buffer. The assay buffer contained 20 mM HEPES (pH 7.4), 0.01% Tween 20, and 2 mM dithiothreitol. A test compound solution was prepared by dilution of the test compound with dimethyl sulfoxide (DMSO) to a concentration 100 times higher than the final concentration and then 25-fold dilution with the assay buffer to a concentration four times higher than the final concentration. An ATP/substrate/Metal solution was prepared by five-fold dilution of the 5×ATP/substrate/Metal solution attached to the kit with the assay buffer. An enzyme solution was prepared by dilution of the CDK2/cyclin A2 attached to the kit with the assay buffer to a concentration twice higher than the final concentration (final concentration of CDK2/cyclin A2: 2.5 ng/well). A detection reagent was prepared by five-fold dilution of 5×IMAP-binding buffer A with distilled water and 400-fold dilution of the IMAP-binding reagent with the diluted buffer.
The test compound solution (5 μL/well) and the ATP/substrate/Metal solution (5 μL/well) were added to a 384-well plate, and the enzyme solution or the assay buffer (10 μL/well) was added to the plate (total amount of the reaction mixture: 20 μL/well) for initiation of enzymatic reaction. […] The reaction was performed at room temperature for 60 minutes, and the detection reagent (60 μL/well) was then added to the plate, followed by further reaction for 30 minutes at room temperature under light shielding conditions. Subsequently, fluorescent polarization was determined with a microplate reader at an excitation wavelength of 485 nm and an emission wavelength of 535 nm.
The percent inhibition of enzyme activity was calculated for each test compound (note: enzyme activity=100% in the case of addition of the enzyme solution and addition of DMSO instead of the test compound solution, whereas enzyme activity=0% in the case of addition of the assay buffer instead of the enzyme solution and addition of DMSO instead of the test compound solution). The percent inhibition of enzyme activity was fitted to a dose-response curve, to determine a 50% inhibitory concentration against CDK2/cyclin A2.
In each table, “+++” corresponds to IC50<10 nM, “++” 10 nM≤IC50<100 nM, and “+” 100 nM≤IC50.

[1] = 50% inhibitory concentration against CDK4/cyclin D3, given as class symbol
[2] = 50% inhibitory concentration against CDK2/cyclin A2, given as class symbol
[3] = Human CDK4/cyclin D3 inhibitory activity, read-out: CDK4 Activity symbol
[4] = Human CDK2/cyclin A2 inhibitory activity, read-out: CDK2 Activity symbol

| Structure (SMILES) | pIC50 (CDK4/cyclin D3; [1]) | pIC50 (CDK2/cyclin A2; [2]) | pIC50 (CDK4/cyclin D3; [3]) | pIC50 (CDK2/cyclin A2; [4]) |
| --- | --- | --- | --- | --- |
| Cc1nc(Nc2ncc3cc([C@@H](C)O)nc(NCC(C)C)c3n2)ccc1N1CCNCC1 [Compound 1093] | > 8.00 | ≤ 7.00 |  |  |
| CN(C)CCOc1ccc(Nc2ncc3cc(C(F)F)nc(N[C@H]4CCCOC4)c3n2)nc1 [Compound 382] |  |  | > 8.00 | ≤ 7.00 |
| CC(C)Nc1nc(C(C)O)cc2cnc(Nc3ccc(N4CCC(CCCO)CC4)cn3)nc12 (stereo not drawn) [Compound 75] |  |  | > 8.00 | ≤ 7.00 |
| CC(C)Nc1nc([C@@H](C)O)cc2cnc(Nc3ccc(N(C)CCN(C)C)cn3)nc12 [Compound 1228] | > 8.00 | ≤ 7.00 |  |  |
| CO[C@H](C)c1cc2cnc(Nc3ccc(CN4CCCOCC4)cn3)nc2c(NC(C)C)n1 [Compound 273] |  |  | > 8.00 | ≤ 7.00 |
| CC(C)Nc1nc([C@@H](C)O)cc2cnc(Nc3ccc(N4CCN(CC(C)(C)O)CC4)nn3)nc12 [Compound 625] |  |  | > 8.00 | ≤ 7.00 |
| CC(C)Nc1nc([C@@H](C)O)cc2cnc(Nc3ccc4c(n3)CN(C(=O)CO)C4)nc12 [Compound 656] | > 8.00 | ≤ 7.00 |  |  |
| CCCNc1nc([C@@H](C)OC)cc2cnc(Nc3ccc(N4C[C@H]5C[C@@H]4CN5)nn3)nc12 [Compound 858] | > 8.00 | ≤ 7.00 |  |  |
| CO[C@H](C)c1cc2cnc(Nc3ccc(CN4CCN(C(C)(C)C(=O)O)CC4)cn3)nc2c(NC(C)C)n1 [Compound 679] | 7.00 to 8.00 | ≤ 7.00 |  |  |
| CC(C)CNc1nc([C@@H](C)O)cc2cnc(Nc3ccc(CN4CCCC(O)C4)cn3)nc12 (stereo partly drawn) [Compound 1085] | > 8.00 | ≤ 7.00 |  |  |
| CC(C)Nc1nc(C(F)F)cc2cnc(Nc3ccc(C(N)=O)cn3)nc12 [Compound 96] |  |  | 7.00 to 8.00 | 7.00 to 8.00 |
| CC(C)Nc1nc([C@@H](C)O)cc2cnc(Nc3ccc(CN4CCOCC4)cn3)nc12 [Compound 233] |  |  | > 8.00 | ≤ 7.00 |
| CC(C)Nc1nc([C@@H](C)O)cc2cnc(Nc3ccc(N4CCN[C@@H](C(C)C)C4=O)cn3)nc12 [Compound 765] | > 8.00 | ≤ 7.00 |  |  |
| CC(C)Nc1nc([C@@H](C)O)cc2cnc(Nc3ccc(CN4CCC(O)C4)cn3)nc12 (stereo partly drawn) [Compound 1041] | > 8.00 | ≤ 7.00 |  |  |
| CC(C)Nc1nc([C@@H](C)O)cc2cnc(Nc3ccc(N4CCC(C(C)(C)C(=O)O)CC4)nn3)nc12 [Compound 794] | > 8.00 | ≤ 7.00 |  |  |
| CC(C)Nc1nc([C@@H](C)O)cc2cnc(Nc3ccc(C(=O)N4CCC(N(C)C)CC4)cn3)nc12 [Compound 1161] | > 8.00 | 7.00 to 8.00 |  |  |
| CCO[C@H](C)c1cc2cnc(Nc3ccc(N4CCNCC4)nn3)nc2c(NC(C)C)n1 [Compound 310] |  |  | > 8.00 | ≤ 7.00 |
| CC(=O)c1cc2cnc(Nc3ccc4c(n3)CCNC4)nc2c(NC(C)C)n1 [Compound 1027] | > 8.00 | ≤ 7.00 |  |  |
| C[C@@H](O)c1cc2cnc(Nc3ccc(CN4CCN(CCO)CC4)cn3)nc2c(NC2CC(F)C2)n1 (stereo partly drawn) [Compound 1171] | > 8.00 | ≤ 7.00 |  |  |
| CC(C)Nc1nc([C@@H](C)O)cc2cnc(Nc3ccc(OCC4CNC4)nn3)nc12 [Compound 579] |  |  | > 8.00 | ≤ 7.00 |
| CN(C)CCOc1ccc(Nc2ncc3cc(C(F)F)nc(N[C@H]4CC[C@H](O)CC4)c3n2)nc1 [Compound 388] |  |  | > 8.00 | ≤ 7.00 |
| CC(C)Nc1nc([C@@H](C)O)cc2cnc(Nc3ccc(N4CCNC(C(F)(F)F)C4)cn3)nc12 (stereo partly drawn) [Compound 777] | > 8.00 | ≤ 7.00 |  |  |
| CC(C)Nc1nc(C2(C)COC2)cc2cnc(Nc3ccc4c(n3)CCNC4)nc12 [Compound 887] | > 8.00 | ≤ 7.00 |  |  |
| CCC(OC)c1cc2cnc(Nc3ccc(N4CCNCC4)nn3)nc2c(NC(C)C)n1 (stereo not drawn) [Compound 1068] | ≤ 7.00 | ≤ 7.00 |  |  |
| CO[C@H](C)c1cc2cnc(Nc3ccc(CN4CCN(CCO)CC4)cn3)nc2c(N[C@H]2CCCOC2)n1 [Compound 860] | > 8.00 | ≤ 7.00 |  |  |
| CC(C)Nc1nc(C(C)O)cc2cnc(Nc3ccc(C4CNCCO4)cn3)nc12 (single isomer, unassigned) [Compound 735] | > 8.00 | ≤ 7.00 |  |  |

| Structure (SMILES) | pIC50 (CDK4/cyclin D3; [1]) | pIC50 (CDK2/cyclin A2; [2]) | pIC50 (CDK4/cyclin D3; [3]) | pIC50 (CDK2/cyclin A2; [4]) |
| --- | --- | --- | --- | --- |
| C[C@@H](O)c1cc2cnc(Nc3ccc(N4CCC(O)CC4)nn3)nc2c(NC2CCC(C)(C)OC2)n1 (stereo partly drawn) [Compound 589] |  |  | > 8.00 | ≤ 7.00 |
| CCNc1nc([C@@H](C)OC)cc2cnc(Nc3ccc4c(n3)CCN(C(=O)OCCN(C)C)C4)nc12 [Compound 1134] | > 8.00 | ≤ 7.00 |  |  |
| CNC1CCN(c2ccc(Nc3ncc4cc(C(C)O)nc(NC(C)C)c4n3)nn2)CC1F (stereo not drawn) [Compound 610] |  |  | > 8.00 | ≤ 7.00 |
| CC(C)Nc1nc(C(F)F)cc2cnc(Nc3ccc(CN4CCN(S(C)(=O)=O)CC4)cn3)nc12 [Compound 115] |  |  | > 8.00 | ≤ 7.00 |
| CC(C)Nc1nc(C(C)O)cc2cnc(Nc3ccc(N4CCC(O)C4)cn3)nc12 (stereo not drawn) [Compound 77] |  |  | > 8.00 | ≤ 7.00 |
| COC[C@H](C)Nc1nc([C@@H](C)O)c(Cl)c2cnc(Nc3ccc(N4CCNCC4=O)cn3)nc12 [Compound 756] | 7.00 to 8.00 | ≤ 7.00 |  |  |
| CC(C)Nc1nc([C@@H](C)O)cc2cnc(Nc3ccc(N4CCN(C(C)C(=O)O)CC4=O)cn3)nc12 (stereo partly drawn) [Compound 895] | > 8.00 | ≤ 7.00 |  |  |
| CCNc1nc([C@@H](C)O)cc2cnc(Nc3ccc(N4CCNCC4=O)cn3)nc12 [Compound 812] | 7.00 to 8.00 | ≤ 7.00 |  |  |
| CC(C)Nc1nc(C(F)F)cc2cnc(Nc3ccc(N4CCNC(C)(C)C4)cn3)nc12 [Compound 181] |  |  | > 8.00 | 7.00 to 8.00 |
| C[C@@H](O)c1cc2cnc(Nc3ccc(CN4CCNCC4)cn3)nc2c(NC2CCCC2C(=O)O)n1 (stereo partly drawn) [Compound 324] |  |  | ≤ 7.00 | ≤ 7.00 |
| CC(C)Nc1nc([C@@H](C)O)cc2cnc(Nc3ccc(N4CCN(C(=O)C5CCCO5)CC4)nn3)nc12 (stereo partly drawn) [Compound 1184] |  | ≤ 7.00 |  |  |
| CCCNc1nc([C@@H](C)O)cc2cnc(Nc3ccc(CN4CCCC(O)C4)cn3)nc12 (stereo partly drawn) [Compound 1082] |  | ≤ 7.00 |  |  |
| CNC1C2CCC1CN(c1ccc(Nc3ncc4cc([C@@H](C)OC)nc(NC(C)C)c4n3)nc1)C2 (stereo partly drawn) [Compound 503] |  |  | > 8.00 |  |
| COC(C)c1cc2cnc(Nc3ccc(O[C@@H]4CCNC[C@H]4F)cn3)nc2c(NC(C)C)n1 (relative stereo) [Compound 459] |  |  | > 8.00 |  |
| CC(C)Nc1nc([C@@H](C)O)cc2cnc(Nc3ccc(O[C@@H]4CCNC[C@@H]4F)nn3)nc12 [Compound 564] |  |  | > 8.00 |  |
| CO[C@H](C)c1cc2cnc(Nc3ccc(NC4CCNC4)nn3)nc2c(NC(C)C)n1 (stereo partly drawn) [Compound 357] |  |  | > 8.00 |  |
| COC(C)c1cc2cnc(Nc3ccc(CN4CCNCC4)cn3)nc2c(NCCC2CCCO2)n1 (stereo not drawn) [Compound 429] |  |  | > 8.00 |  |
| COC(C)c1cc2cnc(Nc3ccc(CN4CCNCC4)cn3)nc2c(NC2CCC(O)C2)n1 (stereo not drawn) [Compound 427] |  |  | > 8.00 |  |
| CO[C@H](C)c1cc2cnc(Nc3ccc(N4CC5(CNC5)C4)cn3)nc2c(NC(C)C)n1 [Compound 476] |  |  | > 8.00 |  |
| COC(C)c1cc2cnc(Nc3ccc(CN4CCNCC4)cn3)nc2c(NC2CCCC(O)C2)n1 (stereo not drawn) [Compound 397] |  |  | > 8.00 |  |
| CC(C)Nc1nc([C@@H](C)O)cc2cnc(Nc3ccc(CN4CCNC(C)(C)C4)cn3)nc12 [Compound 536] |  |  | > 8.00 |  |
| COC(C)c1cc2cnc(Nc3ccc(CN4CCNCC4)cn3)nc2c(NCC(C)(C)OC)n1 (stereo not drawn) [Compound 394] |  |  | 7.00 to 8.00 |  |
| CC(C)Nc1nc([C@@H](C)O)cc2cnc(Nc3ccc(O[C@H]4CCCNC4)cn3)nc12 [Compound 565] |  |  | > 8.00 |  |
| COC(C)c1cc2cnc(Nc3ccc(CN4CCNCC4)cn3)nc2c(NCC2CCCC(O)C2)n1 (stereo not drawn) [Compound 402] |  |  | > 8.00 |  |
| CO[C@H](C)c1cc2cnc(Nc3ccc(CN4CCN(CCCC(=O)O)CC4)cn3)nc2c(NC(C)C)n1 [Compound 697] | 7.00 to 8.00 |  |  |  |
